In US20240148821A1, “PHARMACEUTICAL USE OF CYCLIC PEPTIDE COMPOUND” (CHUGAI SEIYAKU KABUSHIKI KAISHA, priority 2021, published 2024):
Numbered stars: 1 amine (or outer) side, 2 acyl side, 3 side chain; on linkers, the order of the positions; unused ones are H or OH. Bridge positions count the residues as written; N and C are the ends. Square brackets hold non-standard residues; d marks the D form. Peptide text beside a SMILES is read from it. * marks the point of attachment. hPhe(3,5-F2-4-CF3) = N[C@@H](CCc1cc(F)c(C(F)(F)F)c(F)c1)C(=O)O; hPhe(3-Cl-4-CF3) = N[C@@H](CCc1ccc(C(F)(F)F)c(Cl)c1)C(=O)O; NMePhe(4-CF3) = CN[C@@H](Cc1ccc(C(F)(F)F)cc1)C(=O)O; Piperazinyl(4-(3-oxetanyl)) = C1OCC1N1CCN(*)CC1; Thiomorpholino(1,1-dioxo) = O=S1(=O)CCN(*)CC1; NMeAbu(4,4,4-F3) = CN[C@@H](CC(F)(F)F)C(=O)O; NMePhe(4-Cl) = CN[C@@H](Cc1ccc(Cl)cc1)C(=O)O; NMePhe(4-Me) = CN[C@@H](Cc1ccc(C)cc1)C(=O)O; X135 = O=C([C@H](Cc1cc(F)ccc1F)N[*:1])[*:2]; X40 = O=C([C@H](Cc1cc(I)ccc1F)N[*:1])[*:2]; NMeGly(cPent) = CN[C@H](C(=O)O)C1CCCC1; Phe(3-I) = N[C@@H](Cc1cccc(I)c1)C(=O)O; Pro(4,4-F2) = O=C(O)[C@@H]1CC(F)(F)CN1; NMeGly(cBu) = CN[C@H](C(=O)O)C1CCC1; NMeY = CN[C@@H](Cc1ccc(O)cc1)C(=O)O; NMeCha = CN[C@@H](CC1CCCCC1)C(=O)O; NMehLeu = CN[C@@H](CCC(C)C)C(=O)O; NEtLeu = CCN[C@@H](CC(C)C)C(=O)O; NMeChg = CN[C@H](C(=O)O)C1CCCCC1; NMeI = CC[C@H](C)[C@H](NC)C(=O)O; NMeD = CN[C@@H](CC(=O)O)C(=O)O; NMeL = CN[C@@H](CC(C)C)C(=O)O; NMeV = CN[C@H](C(=O)O)C(C)C; NMeAbu = CC[C@H](NC)C(=O)O; Morpholide = C1CN(*)CCO1; NMeA = CN[C@@H](C)C(=O)O; NMeAib = CNC(C)(C)C(=O)O; Nle = CCCC[C@H](N)C(=O)O; Piperidide = C1CCN(*)CC1; Pra = C#CC[C@H](N)C(=O)O; Pyrrolidide = C1CCN(*)C1; Ac5c = NC1(C(=O)O)CCCC1; Aze = O=C(O)[C@@H]1CCN1; CF3 = FC(F)(F)*; Sar = CNCC(=O)O

These compounds were tested on Human pancreatic cancer cell line AsPC-1 (G12D mutation Kras) (assay: AsPC-1 cell growth inhibition (AsPC-1 CGI)). Details: read-out: AsPC-1 cell growth inhibition, 50% growth inhibitory concentration (IC50 value); 96 hours, CellTiter-Glo, values classified in ranges.
Format: cell-based
Experimental: Test compounds were serially dilated with dimethyl sulfoxide, and 200 nL was then dispensed to a U-bottom 96-well plate using Labcyte Echo. […] The cell suspension was dispensed to a. plate containing a test compound at 100 μL per well and incubated at 37° C. in a 5% carbon dioxide gas incubator. 96 hours later, 80 μL of CellTiter-Glo (Promega) was added to each well and fluorescence was measured.

First: CC[C@H](C)[C@@H]1NC(=O)[C@H](CC(C)C)N(C)C(=O)C[C@@H](C(=O)N2CCS(=O)(=O)CC2)N(C)C(=O)[C@H](C2CCCCC2)N(C)C(=O)C2(CCCC2)NC(=O)[C@@H]2CCCN2C(=O)[C@H](CCc2ccc(C(F)(F)F)c(Cl)c2)NC(=O)CN(C)C(=O)[C@H](CC2CCCCC2)N(C)C(=O)CN(C)C(=O)CN(C)C1=O [Compound 1263] ([NMeL]I[Sar][Sar][NMeCha][Sar][hPhe(3-Cl-4-CF3)]P[Ac5c][NMeChg][NMeD]-{Thiomorpholino(1,1-dioxo)}; lactam N-11)
Second: CC[C@H](C)[C@@H]1NC(=O)[C@H](CC(C)C)N(C)C(=O)C[C@@H](C(=O)N2CCCC2)N(C)C(=O)[C@H](C2CCCC2)N(C)C(=O)C2(CCCC2)NC(=O)[C@@H]2CC(F)(F)CN2C(=O)[C@H](CCc2ccc(C(F)(F)F)c(Cl)c2)NC(=O)CN(C)C(=O)[C@H](CC2CCCCC2)N(C)C(=O)CN(C)C(=O)CN(C)C1=O [Compound 1270] ([NMeL]I[Sar][Sar][NMeCha][Sar][hPhe(3-Cl-4-CF3)][Pro(4,4-F2)][Ac5c][NMeGly(cPent)][NMeD]-Pyrrolidide; lactam N-11)
The IC50 of the first is higher: > 500 nM for the first, ≤ 20 nM for the second.

CCCC[C@@H]1NC(=O)[C@H](Cc2cc(F)ccc2F)NC(=O)CN(C)C(=O)[C@H](Cc2ccc(OC)cc2)N(C)C(=O)[C@@H]2CCN2C(=O)[C@H](C)N(C)C(=O)[C@H]([C@@H](C)CC)NC(=O)[C@H](CC)N(C)C(=O)C[C@@H](C(=O)N2CCCCC2)N(C)C(=O)[C@H](CC(C)C)NC(=O)C(C)(C)N(C)C1=O [Compound 1268] ([NMeAbu]I[NMeA][Aze][NMeY](Me)[Sar][X135][Nle][NMeAib]L[NMeD]-Piperidide; lactam N-11) and C#CC[C@@H]1NC(=O)[C@H](Cc2cccc(I)c2)NC(=O)CN(C)C(=O)[C@H](Cc2ccc(OC(F)(F)F)cc2)N(C)C(=O)[C@@H]2CCN2C(=O)[C@H](C)N(C)C(=O)[C@H]([C@@H](C)CC)NC(=O)[C@H](CC(C)C)N(C)C(=O)C[C@@H](C(=O)N2CCCCC2)N(C)C(=O)[C@H](CC(C)C)NC(=O)C(C)(C)N(C)C1=O [Compound 1288] ([NMeL]I[NMeA][Aze][NMeY](CF3)[Sar][Phe(3-I)][Pra][NMeAib]L[NMeD]-Piperidide; lactam N-11) cannot be ordered by IC50: > 500 nM for the first, > 500 nM for the second.

CC[C@H](C)[C@@H]1NC(=O)[C@H](CC(C)C)N(C)C(=O)C[C@@H](C(=O)N2CCCCC2)NC(=O)[C@H](C2CCCCC2)N(C)C(=O)C2(CCCC2)NC(=O)[C@@H]2CCCN2C(=O)[C@H](CCc2ccc(C(F)(F)F)c(Cl)c2)NC(=O)CN(C)C(=O)[C@H](CC2CCCCC2)N(C)C(=O)CN(C)C(=O)CN(C)C1=O [Compound 1274] ([NMeL]I[Sar][Sar][NMeCha][Sar][hPhe(3-Cl-4-CF3)]P[Ac5c][NMeChg]D-Piperidide; lactam N-11) and CC[C@H](C)[C@@H]1NC(=O)[C@H](CC(C)C)N(C)C(=O)C[C@@H](C(=O)N2CCOCC2)NC(=O)[C@H]([C@@H](C)CC)N(C)C(=O)C2(CCCC2)NC(=O)[C@@H]2CCCN2C(=O)[C@H](CCc2ccc(C(F)(F)F)c(Cl)c2)NC(=O)CN(C)C(=O)[C@H](CC2CCCCC2)N(C)C(=O)CN(C)C(=O)CN(C)C1=O [Compound 1277] ([NMeL]I[Sar][Sar][NMeCha][Sar][hPhe(3-Cl-4-CF3)]P[Ac5c][NMeI]D-Morpholide; lactam N-11) cannot be ordered by IC50: > 500 nM for the first, > 500 nM for the second.

CC[C@H](C)[C@@H]1NC(=O)[C@H](CC(C)C)N(C)C(=O)C[C@@H](C(=O)N2CCS(=O)(=O)CC2)NC(=O)[C@H]([C@@H](C)CC)N(C)C(=O)C2(CCCC2)NC(=O)[C@@H]2CCCN2C(=O)[C@H](CCc2ccc(C(F)(F)F)c(Cl)c2)NC(=O)CN(C)C(=O)[C@H](CC2CCCCC2)N(C)C(=O)CN(C)C(=O)CN(C)C1=O [Compound 1279] ([NMeL]I[Sar][Sar][NMeCha][Sar][hPhe(3-Cl-4-CF3)]P[Ac5c][NMeI]D-{Thiomorpholino(1,1-dioxo)}; lactam N-11) and CC[C@H](C)[C@@H]1NC(=O)[C@H](CC(C)C)N(C)C(=O)C[C@@H](C(=O)N2CCN(C3COC3)CC2)NC(=O)[C@H](C(C)C)N(C)C(=O)C2(CCCC2)NC(=O)[C@@H]2CCCN2C(=O)[C@H](CCc2ccc(C(F)(F)F)c(Cl)c2)NC(=O)CN(C)C(=O)[C@H](CC2CCCCC2)N(C)C(=O)[C@@H]2CCN2C(=O)[C@H](C)N(C)C1=O [Compound 1294] ([NMeL]I[NMeA][Aze][NMeCha][Sar][hPhe(3-Cl-4-CF3)]P[Ac5c][NMeV]D-{Piperazinyl(4-(3-oxetanyl))}; lactam N-11) cannot be ordered by IC50: > 500 nM for the first, > 500 nM for the second.

CC[C@H](C)[C@@H]1NC(=O)[C@H](CC(F)(F)F)N(C)C(=O)C[C@@H](C(=O)N2CCCC2)N(C)C(=O)[C@H](C2CCCCC2)N(C)C(=O)C2(CCCC2)NC(=O)[C@@H]2CC(F)(F)CN2C(=O)[C@H](CCc2cc(F)c(C(F)(F)F)c(F)c2)NC(=O)CN(C)C(=O)[C@H](CC2CCCCC2)N(C)C(=O)CN(C)C(=O)CN(C)C1=O [Compound 1281] ([NMeAbu(4,4,4-F3)]I[Sar][Sar][NMeCha][Sar][hPhe(3,5-F2-4-CF3)][Pro(4,4-F2)][Ac5c][NMeChg][NMeD]-Pyrrolidide; lactam N-11) and CC[C@H](C)[C@@H]1NC(=O)[C@H](C2CCC2)N(C)C(=O)C[C@@H](C(=O)N2CCCC2)N(C)C(=O)[C@H](C2CCCCC2)N(C)C(=O)C2(CCCC2)NC(=O)[C@@H]2CC(F)(F)CN2C(=O)[C@H](CCc2cc(F)c(C(F)(F)F)c(F)c2)NC(=O)CN(C)C(=O)[C@H](CC2CCCCC2)N(C)C(=O)CN(C)C(=O)CN(C)C1=O [Compound 1295] ([NMeGly(cBu)]I[Sar][Sar][NMeCha][Sar][hPhe(3,5-F2-4-CF3)][Pro(4,4-F2)][Ac5c][NMeChg][NMeD]-Pyrrolidide; lactam N-11) cannot be ordered by IC50: ≤ 20 nM for the first, ≤ 20 nM for the second.

CC[C@H](C)[C@@H]1NC(=O)[C@H](CC(C)C)N(CC)C(=O)C[C@@H](C(=O)N(C)C)N(C)C(=O)[C@H](C2CCCC2)N(C)C(=O)C2(CCCC2)NC(=O)[C@@H]2CCCN2C(=O)[C@H](CCc2ccc(C(F)(F)F)c(Cl)c2)NC(=O)CN(C)C(=O)[C@H](Cc2ccc(C)cc2)N(C)C(=O)[C@@H]2CCN2C(=O)[C@H](C)NC1=O [Compound 1282] ([NEtLeu]IA[Aze][NMePhe(4-Me)][Sar][hPhe(3-Cl-4-CF3)]P[Ac5c][NMeGly(cPent)][NMeD]-NMe2; lactam N-11) and CC[C@H](C)[C@@H]1NC(=O)[C@H](CCC(C)C)N(C)C(=O)C[C@@H](C(=O)N2CCCC2)N(C)C(=O)[C@H]([C@@H](C)CC)N(C)C(=O)C2(CCCC2)NC(=O)[C@@H]2CCCN2C(=O)[C@H](CCc2ccc(C(F)(F)F)c(Cl)c2)NC(=O)CN(C)C(=O)[C@H](Cc2ccc(C(F)(F)F)cc2)N(C)C(=O)[C@@H]2CCN2C(=O)[C@H](C)N(C)C1=O [Compound 1289] ([NMehLeu]I[NMeA][Aze][NMePhe(4-CF3)][Sar][hPhe(3-Cl-4-CF3)]P[Ac5c][NMeI][NMeD]-Pyrrolidide; lactam N-11) cannot be ordered by IC50: ≤ 20 nM for the first, ≤ 20 nM for the second.

CCCC[C@@H]1NC(=O)[C@H](Cc2cc(I)ccc2F)NC(=O)CN(C)C(=O)[C@H](Cc2ccc(Cl)cc2)N(C)C(=O)CN(C)C(=O)CN(C)C(=O)[C@H]([C@@H](C)CC)NC(=O)[C@H](CC(C)C)N(C)C(=O)C[C@@H](C(=O)N2CCCCC2)N(C)C(=O)[C@H](CC(C)C)NC(=O)C(C)(C)N(C)C1=O [Compound 1286] ([NMeL]I[Sar][Sar][NMePhe(4-Cl)][Sar][X40][Nle][NMeAib]L[NMeD]-Piperidide; lactam N-11) was tested, and the IC50 was > 500 nM.
